One series has as its system TFEB. In words: High content screen measuring TFEB nuclear accumulation (TFEB nuclear/cytosol ratio) in BEAS-2B cells stably expressing TFEB-EGFP. Format: cell-based, human. The following applies: 18 hours incubation. The method in brief:
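Readout: lowest compound concentration giving a 25% rise in nuclear/cytosol TFEB-GFP ratio, from DAPI-masked nuclear and mask-expanded cytosolic signals. Cells (BEAS-2B, TFEB-EGFP stable, ~2300–2500/well) rested 8 hours, then treated 18 hours with compound serial dilutions in 2% FBS medium before PFA fixation and DAPI staining.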

The test system of the next series is BEAS-2B cells. As to the kind of experiment: Toxicity: compound concentration needed to induce greater than 50 percent of cell loss. The format is cell-based, human. The note with it: 18 hours incubation. An outline of the steps:
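Reported value is the concentration giving greater than 50 percent cell loss, grouped into bins (≥25 μM; between 1 and 25 μM; ≤1 μM as "+++"). Measured by high-content imaging of DAPI-stained BEAS-2B TFEB-EGFP cells fixed after 18 h compound exposure.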

Regarding `Cc1ccc(Nc2nc(-c3ccc(C)cc3)nc3ccccc23)cc1` [Compound 197], the “efficacy (minimal compound concentration needed to increase TFEB nuclear/cytosol ratio by 25%)” value in the series on TFEB is recorded as “+ (“+” equals >25 μM)”. The “toxicity (compound concentration needed to induce greater than 50 percent of cell loss)” value in the series on BEAS-2B cells is reported as “+ (cell loss of greater than 50 percent at a concentration that equals or is greater than 25 μM was represented as)”.

For the compound `CC(C)c1nc2ccc(Nc3nc(-c4ccncc4)nc4cc(F)ccc34)cc2s1` [Compound 355], in the series with TFEB, the “efficacy (minimal compound concentration needed to increase TFEB nuclear/cytosol ratio by 25%)” value was “++ (“++” equals between ≤25 μM and >1 μM)”. Moreover, in the series with BEAS-2B cells, the “toxicity (compound concentration needed to induce greater than 50 percent of cell loss)” value is reported as “+ (cell loss of greater than 50 percent at a concentration that equals or is greater than 25 μM was represented as)”.

As to `Cc1nc2cc(Cl)c(Nc3nc(-c4ccncc4)nc4ncccc34)cc2o1` [Compound 145], the “efficacy (minimal compound concentration needed to increase TFEB nuclear/cytosol ratio by 25%)” value with TFEB was “+++ (“+++” equals ≤1 μM)”. Also, the “toxicity (compound concentration needed to induce greater than 50 percent of cell loss)” value in the series with BEAS-2B cells is listed as “+ (cell loss of greater than 50 percent at a concentration that equals or is greater than 25 μM was represented as)”.

Take `Cc1cc(F)cc(Nc2nc(-c3ccncc3)nc3ccccc23)c1` [Compound 184]: the “efficacy (minimal compound concentration needed to increase TFEB nuclear/cytosol ratio by 25%)” value in the series with TFEB is “++ (“++” equals between ≤25 μM and >1 μM)”. The “toxicity (compound concentration needed to induce greater than 50 percent of cell loss)” value in the series with BEAS-2B cells is on record as “+ (cell loss of greater than 50 percent at a concentration that equals or is greater than 25 μM was represented as)”.

Take `Cn1cnc2cc(Nc3nc(-c4ccncc4)nc4ccccc34)ccc21` [Compound 28]: the “efficacy (minimal compound concentration needed to increase TFEB nuclear/cytosol ratio by 25%)” value in the series with TFEB is on record as “+ (“+” equals >25 μM)”. Moreover, the “toxicity (compound concentration needed to induce greater than 50 percent of cell loss)” value in the series on BEAS-2B cells was “+ (cell loss of greater than 50 percent at a concentration that equals or is greater than 25 μM was represented as)”.

As for `CC(C)c1nc2ccc(Nc3nc(-c4ccncc4)nc4ccccc34)cc2o1` [Compound 374], the “efficacy (minimal compound concentration needed to increase TFEB nuclear/cytosol ratio by 25%)” value in the series on TFEB is “++ (“++” equals between ≤25 μM and >1 μM)”. Also, in the series with BEAS-2B cells, the “toxicity (compound concentration needed to induce greater than 50 percent of cell loss)” value was “+ (cell loss of greater than 50 percent at a concentration that equals or is greater than 25 μM was represented as)”.

As for `Fc1cc(Nc2nc(-c3ccncc3)nc3ccccc23)cc2cc[nH]c12` [Compound 71], the “efficacy (minimal compound concentration needed to increase TFEB nuclear/cytosol ratio by 25%)” value in the series on TFEB is listed as “+++ (“+++” equals ≤1 μM)”. Also, in the series with BEAS-2B cells, the “toxicity (compound concentration needed to induce greater than 50 percent of cell loss)” value is recorded as “+ (cell loss of greater than 50 percent at a concentration that equals or is greater than 25 μM was represented as)”.

With `c1ccc2c(Nc3ccc4[nH]nnc4c3)nc(-c3ccncc3)nc2c1` [Compound 191], in the series on TFEB, the “efficacy (minimal compound concentration needed to increase TFEB nuclear/cytosol ratio by 25%)” value is recorded as “+++ (“+++” equals ≤1 μM)”. Besides, the “toxicity (compound concentration needed to induce greater than 50 percent of cell loss)” value with BEAS-2B cells was “+ (cell loss of greater than 50 percent at a concentration that equals or is greater than 25 μM was represented as)”.

Consider `Fc1cccc(Nc2nc(-c3ccncc3)cc3ncccc23)c1` [Compound 245], for which, in the series on TFEB, the “efficacy (minimal compound concentration needed to increase TFEB nuclear/cytosol ratio by 25%)” value was “+++ (“+++” equals ≤1 μM)”. The “toxicity (compound concentration needed to induce greater than 50 percent of cell loss)” value in the series on BEAS-2B cells is reported as “+ (cell loss of greater than 50 percent at a concentration that equals or is greater than 25 μM was represented as)”.

Consider `c1cc(-c2nc(Nc3ccc4[nH]ccc4c3)c3cnccc3n2)ccn1` [Compound 84], for which the “efficacy (minimal compound concentration needed to increase TFEB nuclear/cytosol ratio by 25%)” value in the series with TFEB is “+++ (“+++” equals ≤1 μM)”. Moreover, the “toxicity (compound concentration needed to induce greater than 50 percent of cell loss)” value with BEAS-2B cells was “+ (cell loss of greater than 50 percent at a concentration that equals or is greater than 25 μM was represented as)”.

On to `COc1cccc(Nc2nc(-c3ccncc3)nc3ccccc23)c1` [Compound 190], for which the “efficacy (minimal compound concentration needed to increase TFEB nuclear/cytosol ratio by 25%)” value in the series on TFEB was “++ (“++” equals between ≤25 μM and >1 μM)”. In addition, in the series on BEAS-2B cells, the “toxicity (compound concentration needed to induce greater than 50 percent of cell loss)” value is recorded as “+ (cell loss of greater than 50 percent at a concentration that equals or is greater than 25 μM was represented as)”.

As to `Cc1nc2ccc(Nc3nc(-c4ccncc4)nc4ncccc34)cc2o1` [Compound 146], the “efficacy (minimal compound concentration needed to increase TFEB nuclear/cytosol ratio by 25%)” value in the series with TFEB is “+++ (“+++” equals ≤1 μM)”. Moreover, in the series on BEAS-2B cells, the “toxicity (compound concentration needed to induce greater than 50 percent of cell loss)” value was “+ (cell loss of greater than 50 percent at a concentration that equals or is greater than 25 μM was represented as)”.

Regarding `c1ccc(Nc2nc(-c3ccncc3)nc3ccccc23)cc1` [Compound 179], the “efficacy (minimal compound concentration needed to increase TFEB nuclear/cytosol ratio by 25%)” value in the series with TFEB was “++ (“++” equals between ≤25 μM and >1 μM)”. Further, the “toxicity (compound concentration needed to induce greater than 50 percent of cell loss)” value in the series with BEAS-2B cells is given as “+ (cell loss of greater than 50 percent at a concentration that equals or is greater than 25 μM was represented as)”.

`c1cc(Nc2nc(-c3ccncc3)nc3ccccc23)c2[nH]ccc2c1` [Compound 98]: in the series with TFEB, the “efficacy (minimal compound concentration needed to increase TFEB nuclear/cytosol ratio by 25%)” value is listed as “+++ (“+++” equals ≤1 μM)”. The “toxicity (compound concentration needed to induce greater than 50 percent of cell loss)” value in the series with BEAS-2B cells is listed as “+ (cell loss of greater than 50 percent at a concentration that equals or is greater than 25 μM was represented as)”.

Take `FC(F)(F)c1nc2ccc(Nc3nc(-c4ccncc4)nc4ncccc34)cc2o1` [Compound 358]: the “efficacy (minimal compound concentration needed to increase TFEB nuclear/cytosol ratio by 25%)” value with TFEB was “++ (“++” equals between ≤25 μM and >1 μM)”. The “toxicity (compound concentration needed to induce greater than 50 percent of cell loss)” value with BEAS-2B cells was “+ (cell loss of greater than 50 percent at a concentration that equals or is greater than 25 μM was represented as)”.

Take `Fc1cccc(Nc2nc(-c3cncnc3)nc3ccccc23)c1` [Compound 8]: the “efficacy (minimal compound concentration needed to increase TFEB nuclear/cytosol ratio by 25%)” value in the series with TFEB is given as “+ (“+” equals >25 μM)”. The “toxicity (compound concentration needed to induce greater than 50 percent of cell loss)” value with BEAS-2B cells is on record as “+ (cell loss of greater than 50 percent at a concentration that equals or is greater than 25 μM was represented as)”.

Consider `Cc1nc2cc(Nc3nc(-c4ccncc4)nc4ccccc34)ccc2[nH]1` [Compound 29], for which the “efficacy (minimal compound concentration needed to increase TFEB nuclear/cytosol ratio by 25%)” value with TFEB was “++ (“++” equals between ≤25 μM and >1 μM)”. Besides, the “toxicity (compound concentration needed to induce greater than 50 percent of cell loss)” value in the series with BEAS-2B cells is listed as “+ (cell loss of greater than 50 percent at a concentration that equals or is greater than 25 μM was represented as)”.

Consider `Fc1cc(-c2nc(Nc3ccc4[nH]ncc4c3)c3ccccc3n2)ccn1` [Compound 47], for which the “efficacy (minimal compound concentration needed to increase TFEB nuclear/cytosol ratio by 25%)” value with TFEB is recorded as “+++ (“+++” equals ≤1 μM)”. For the same compound, in the series with BEAS-2B cells, the “toxicity (compound concentration needed to induce greater than 50 percent of cell loss)” value is reported as “+++ (cell loss of greater than 50 percent at a concentration that equals or is less than 1 μM was represented as “+++.”)”.

As for `Cc1ccc(-c2nc(Nc3ccccc3F)c3ccccc3n2)cc1` [Compound 201], the “efficacy (minimal compound concentration needed to increase TFEB nuclear/cytosol ratio by 25%)” value in the series on TFEB is listed as “+ (“+” equals >25 μM)”. Further, in the series on BEAS-2B cells, the “toxicity (compound concentration needed to induce greater than 50 percent of cell loss)” value is recorded as “+ (cell loss of greater than 50 percent at a concentration that equals or is greater than 25 μM was represented as)”.

As for `Cc1cc2cc(Nc3nc(-c4ccncc4)nc4ccccc34)ccc2[nH]1` [Compound 62], in the series with TFEB, the “efficacy (minimal compound concentration needed to increase TFEB nuclear/cytosol ratio by 25%)” value was “+++ (“+++” equals ≤1 μM)”. In addition, in the series on BEAS-2B cells, the “toxicity (compound concentration needed to induce greater than 50 percent of cell loss)” value is recorded as “+++ (cell loss of greater than 50 percent at a concentration that equals or is less than 1 μM was represented as “+++.”)”.

For the compound `Fc1cc(Nc2nc(-c3ccncc3)cc3ncccc23)cc2cc[nH]c12` [Compound 239], the “efficacy (minimal compound concentration needed to increase TFEB nuclear/cytosol ratio by 25%)” value with TFEB is “++ (“++” equals between ≤25 μM and >1 μM)”. The “toxicity (compound concentration needed to induce greater than 50 percent of cell loss)” value with BEAS-2B cells is “+ (cell loss of greater than 50 percent at a concentration that equals or is greater than 25 μM was represented as)”.

`c1ccc2c(Nc3ccc4cnccc4c3)nc(-c3cncs3)nc2c1` [Compound 388]: the “efficacy (minimal compound concentration needed to increase TFEB nuclear/cytosol ratio by 25%)” value with TFEB was “+ (“+” equals >25 μM)”. In addition, the “toxicity (compound concentration needed to induce greater than 50 percent of cell loss)” value with BEAS-2B cells was “+ (cell loss of greater than 50 percent at a concentration that equals or is greater than 25 μM was represented as)”.

As for `Cc1cc(Br)cc(Nc2nc(-c3ccncc3)nc3ccccc23)c1` [Compound 55], in the series with TFEB, the “efficacy (minimal compound concentration needed to increase TFEB nuclear/cytosol ratio by 25%)” value is listed as “+ (“+” equals >25 μM)”. Further, the “toxicity (compound concentration needed to induce greater than 50 percent of cell loss)” value in the series with BEAS-2B cells was “+ (cell loss of greater than 50 percent at a concentration that equals or is greater than 25 μM was represented as)”.

As for `c1ccc2c(Nc3ccc4[nH]c5c(c4c3)CCCC5)nc(-c3ccncc3)nc2c1` [Compound 73], the “efficacy (minimal compound concentration needed to increase TFEB nuclear/cytosol ratio by 25%)” value in the series on TFEB was “+++ (“+++” equals ≤1 μM)”. Also, the “toxicity (compound concentration needed to induce greater than 50 percent of cell loss)” value in the series on BEAS-2B cells was “+++ (cell loss of greater than 50 percent at a concentration that equals or is less than 1 μM was represented as “+++.”)”.

As to `Cc1nc2ccc(Nc3nc(-c4ccncc4)nc4c(C)cccc34)cc2s1` [Compound 378], in the series on TFEB, the “efficacy (minimal compound concentration needed to increase TFEB nuclear/cytosol ratio by 25%)” value is “+++ (“+++” equals ≤1 μM)”. Further, the “toxicity (compound concentration needed to induce greater than 50 percent of cell loss)” value in the series with BEAS-2B cells is “+ (cell loss of greater than 50 percent at a concentration that equals or is greater than 25 μM was represented as)”.

Take `c1ccc2c(Nc3ccc4[nH]ncc4c3)nc(N3CCNCC3)nc2c1` [Compound 50]: in the series on TFEB, the “efficacy (minimal compound concentration needed to increase TFEB nuclear/cytosol ratio by 25%)” value is listed as “+ (“+” equals >25 μM)”. For the same compound, the “toxicity (compound concentration needed to induce greater than 50 percent of cell loss)” value in the series with BEAS-2B cells was “+ (cell loss of greater than 50 percent at a concentration that equals or is greater than 25 μM was represented as)”.

As to `c1ccc2c(Nc3ccc4[nH]cnc4c3)nc(-c3ccncc3)nc2c1` [Compound 193], the “efficacy (minimal compound concentration needed to increase TFEB nuclear/cytosol ratio by 25%)” value with TFEB was “++ (“++” equals between ≤25 μM and >1 μM)”. The “toxicity (compound concentration needed to induce greater than 50 percent of cell loss)” value in the series on BEAS-2B cells was “++ (cell loss of greater than 50 percent at a concentration less than 25 μM and greater than 1 μM was represented as)”.

The values are drawn from patent publication US12286442B2, “Methods and materials for increasing transcription factor eb polypeptide levels” (University of Pittsburgh—Of the Commonwealth System of …, priority 2019, dated 2025).
